# Biological target: WIL-FL (Homo sapiens, UniProt P01721)
# Assay: Unlabeled LC Protease Sensitivity Assay (proteinase K)
# Format: biochemical
# Conditions: small molecule 10 μM, WIL-FL 5 μM, proteinase K 50 nM, 2 hours at 37° C.
# How it was run: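 Compound at 10 μM (1% DMSO) is mixed with 5 μM WIL-FL and 50 nM proteinase K in PBS pH 7.4/0.02% Pluronic F-127, 37 °C, 2 h, then quenched with PMSF. Remaining protein measured by SEC-UPLC peak area at 280 nm and expressed as fold protection relative to vehicle and no-protease controls.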
row,Protection (fold protection of LC from protease),SMILES
1,A (A < 0.3)),"CCN(CC)c1ccc2c(CCCOC(=O)NCc3cccc(S(N)(=O)=O)c3)cc(=O)oc2c1 [Compound 303, 3-(7-(diethylamino)-2-oxo-2H-chromen-4-yl)propyl (3-sulfamoylbenzyl)carbamate]"
2,A (A < 0.3)),"CCN(CCF)c1ccc2c(C)cc(=O)oc2c1 [Compound 273, 7-(ethyl(2-fluoroethyl)amino)-4-methyl-2H-chromen-2-one]"
3,A (A < 0.3)),"Cc1cc(=O)oc2cc(N(C)C)ccc12 [Compound 266, 7-(dimethylamino)-4-methyl-2H-chromen-2-one]"
4,B (3 ≤ B < 0.6),"CCN(CC)c1ccc2c(C)c(CCNC(=O)NCCc3ccc(O)cc3)c(=O)oc2c1 [Compound 280, 1-(2-(7-(diethylamino)-4-methyl-2-oxo-2H-chromen-3-yl)ethyl)-3-(4-hydroxyphenethyl)urea]"
5,C (C ≥ 0.6),"CCN(CC)c1ccc2c(C)c(CCNC(=O)NCc3ccc4ccccc4c3)c(=O)oc2c1 [Compound 292, 1-(2-(7-(diethylamino)-4-methyl-2-oxo-2H-chromen-3-yl)ethyl)-3-(naphthalen-2-ylmethyl)urea]"
6,C (C ≥ 0.6),"CCN(CC)c1ccc2c(C)c(CCNC(=O)NCc3cncc4ccccc34)c(=O)oc2c1 [Compound 289, 1-(2-(7-(diethylamino)-4-methyl-2-oxo-2H-chromen-3-yl)ethyl)-3-(isoquinolin-4-ylmethyl)urea]"
7,A (A < 0.3)),"C#CCN(CCC=C)c1ccc2c(C)cc(=O)oc2c1 [Compound 263, 7-(but-3-en-1-yl(prop-2-yn-1-yl)amino)-4-methyl-2H-chromen-2-one]"
8,A (A < 0.3)),"CCN(CC)c1ccc2c(C)c(CCNC(=O)NCc3ccc(=O)[nH]c3)c(=O)oc2c1 [Compound 286, 1-(2-(7-(diethylamino)-4-methyl-2-oxo-2H-chromen-3-yl)ethyl)-3-((6-oxo-1,6-dihydropyridin-3-yl)methyl)urea]"
9,A (A < 0.3)),"CCN(CC)c1ccc2c(C)c(CCOC(=O)NCc3cccc(CCC(=O)OC)c3)c(=O)oc2c1 [Compound 310, Methyl 3-(3-((((2-(7-(diethylamino)-4-methyl-2-oxo-2H-chromen-3-yl)ethoxy)carbonyl)amino)methyl)phenyl)propanoate]"
10,A (A < 0.3)),"C=C(C)CN(C)c1ccc2c(C)cc(=O)oc2c1 [Compound 254, 4-methyl-7-(methyl(2-methylallyl)amino)-2H-chromen-2-one]"
11,A (A < 0.3)),"Cc1cc(=O)oc2cc(N(CC3CC3)CC3CC3)ccc12 [Compound 245, 7-(bis(cyclopropylmethyl)amino)-4-methyl-2H-chromen-2-one]"
12,A (A < 0.3)),"CCN(CC)c1ccc2c(CCCOC(=O)NCc3cccc(CCC(=O)O)c3)cc(=O)oc2c1 [Compound 305, 3-(3-((((3-(7-(diethylamino)-2-oxo-2H-chromen-4-yl)propoxy)carbonyl)amino)methyl)phenyl)propanoic acid]"
13,A (A < 0.3)),"CCN(CC)c1ccc2c(C)c(CCOC(=O)NCc3cccc(CCC(=O)O)c3)c(=O)oc2c1 [Compound 309, 3-(3-((((2-(7-(diethylamino)-4-methyl-2-oxo-2H-chromen-3-yl)ethoxy)carbonyl)amino)methyl)phenyl)propanoic acid]"

# Second part, the compound before the results:
row,SMILES,Protection (fold protection of LC from protease)
1,"CCN(CC)c1ccc2c(C)c(CCNC(C)=O)c(=O)oc2c1 [Compound 94, N-(2-(7-(diethylamino)-4-methyl-2-oxo-2H-chromen-3-yl)ethyl)acetamide]",A (A < 0.3))
2,"Cc1c(CN2CCOCC2)c(=O)oc2cc(OCC(C)c3ccccc3)ccc12 (stereo not drawn) [Compound 183, 4-methyl-3-(morpholinomethyl)-7-(2-phenylpropoxy)-2H-chromen-2-one]",B (3 ≤ B < 0.6)
3,"CCN(CC)c1ccc2c(C)c(CCOC(=O)NCc3cncc(-c4ccc[nH]c4=O)c3)c(=O)oc2c1 [Compound 220, 2-(7-(diethylamino)-4-methyl-2-oxo-2H-chromen-3-yl)ethyl ((2′-oxo-1′,2′-dihydro-[3,3′-bipyridin]-5-yl)methyl)carbamate]",A (A < 0.3))
4,"CCN(CC)c1ccc2c(C)c(CCN3C(=O)NC4(CCN(c5nccc(C#N)n5)CC4)C3=O)c(=O)oc2c1 [Compound 190, 2-(3-(2-(7-(diethylamino)-4-methyl-2-oxo-2H-chromen-3-yl)ethyl)-2,4-dioxo-1,3,8-triazaspiro[4.5]decan-8-yl)pyrimidine-4-carbonitrile]",C (C ≥ 0.6)
5,"Cc1cc(=O)oc2cc(C(=O)NCc3ccc4[nH]ccc4c3)ccc12 [Compound 237, N-((1H-indol-5-yl)methyl)-4-methyl-2-oxo-2H-chromene-7-carboxamide]",A (A < 0.3))
6,"CC(C)CC1NC(=O)N(CC(=O)Nc2ccc(C(F)(F)F)cc2)C1=O (single isomer, unassigned) [Compound 22]",A (A < 0.3))
7,"CCN(CC)c1ccc2c(C)c(CCNC(=O)CCc3ccncc3)c(=O)oc2c1 [Compound 96, N-(2-(7-(diethylamino)-4-methyl-2-oxo-2H-chromen-3-yl)ethyl)-3-(pyridin-4-yl)propanamide]",A (A < 0.3))
8,"CCN(CC)c1ccc2c(C)c(CCOC(=O)N(C)CCc3cccnc3)c(=O)oc2c1 [Compound 102, 2-(7-(diethylamino)-4-methyl-2-oxo-2H-chromen-3-yl)ethyl methyl(2-(pyridin-3-yl)ethyl)carbamate]",A (A < 0.3))
9,"Cc1c(CN2CCOCC2)c(=O)oc2cc(OC(C)Cc3ccccc3)ccc12 (stereo not drawn) [Compound 184, 4-methyl-3-(morpholinomethyl)-7-((1-phenylpropan-2-yl)oxy)-2H-chromen-2-one]",A (A < 0.3))
10,"CCN(CC)c1ccc2c(C)c(CCN3CC4(CCN(c5ncccn5)CC4)NC3=O)c(=O)oc2c1 [Compound 221, 3-(2-(7-(diethylamino)-4-methyl-2-oxo-2H-chromen-3-yl)ethyl)-8-(pyrimidin-2-yl)-1,3,8-triazaspiro[4.5]decan-2-one]",C (C ≥ 0.6)
11,"CCN(CC)c1ccc2c(C)c(CCOC(=O)NCc3ccncn3)c(=O)oc2c1 [Compound 90, 2-(7-(diethylamino)-4-methyl-2-oxo-2H-chromen-3-yl)ethyl (pyrimidin-4-ylmethyl)carbamate]",A (A < 0.3))
12,"CCN(CC)c1ccc2c(C)c(CCN3C(=O)NC4(CCN(C(=O)c5ccncn5)C4)C3=O)c(=O)oc2c1 (stereo not drawn) [Compound 207, 3-(2-(7-(diethylamino)-4-methyl-2-oxo-2H-chromen-3-yl)ethyl)-7-(pyrimidine-4-carbonyl)-1,3,7-triazaspiro[4.4]nonane-2,4-dione]",B (3 ≤ B < 0.6)
13,"Cc1cc(=O)oc2cc(OC(C)Cc3ccccc3)ccc12 (stereo not drawn) [Compound 47, 4-methyl-7-((1-phenylpropan-2-yl)oxy)-2H-chromen-2-one]",A (A < 0.3))
14,"CCN(CC)c1ccc2c(C)c(CCOC(=O)NCc3cccnc3)c(=O)oc2c1 [Compound 89, 2-(7-(diethylamino)-4-methyl-2-oxo-2H-chromen-3-yl)ethyl (pyridin-3-ylmethyl)carbamate]",C (C ≥ 0.6)
15,"CCN(CC)c1ccc2c(C)c(CCOC(=O)NCCCc3ccccc3)c(=O)oc2c1 [Compound 81, 2-(7-(diethylamino)-4-methyl-2-oxo-2H-chromen-3-yl)ethyl (3-phenylpropyl)carbamate]",A (A < 0.3))
16,"CCN(CC)c1ccc2c(C)c(CCOC(=O)NCc3cccc(S(N)(=O)=O)c3)c(=O)oc2c1 [Compound 149, 2-(7-(diethylamino)-4-methyl-2-oxo-2H-chromen-3-yl)ethyl (3-sulfamoylbenzyl)carbamate]",C (C ≥ 0.6)
17,"CCN(CC)c1ccc2c(C)c(CCN3C(=O)CNC3=O)c(=O)oc2c1 [Compound 130, 3-(2-(7-(diethylamino)-4-methyl-2-oxo-2H-chromen-3-yl)ethyl)imidazolidine-2,4-dione]",B (3 ≤ B < 0.6)
18,"CCN(CC)c1ccc2c(C)cc(=O)[nH]c2c1 [Compound 25, 7-(diethylamino)-4-methylquinolin-2(1H)-one]",A (A < 0.3))
19,"CCC(Oc1ccc2c(C)cc(=O)oc2c1)c1ccccc1 (stereo not drawn) [Compound 41, 4-methyl-7-(1-phenylpropoxy)-2H-chromen-2-one]",A (A < 0.3))
20,"Cc1cc(=O)oc2cc(C(=O)NCc3ccncc3)ccc12 [Compound 228, 4-methyl-2-oxo-N-(pyridin-4-ylmethyl)-2H-chromene-7-carboxamide]",A (A < 0.3))
21,"Cc1cc(=O)oc2cc(C(=O)Nc3ccc4ncccc4c3)ccc12 [Compound 235, 4-methyl-2-oxo-N-(quinolin-6-yl)-2H-chromene-7-carboxamide]",A (A < 0.3))
22,"CCN(CC)c1ccc2c(C)c(CCN3C(=O)NC4(CCN(C(=O)c5ncccn5)C4)C3=O)c(=O)oc2c1 (stereo not drawn) [Compound 205, 3-(2-(7-(diethylamino)-4-methyl-2-oxo-2H-chromen-3-yl)ethyl)-7-(pyrimidine-2-carbonyl)-1,3,7-triazaspiro[4.4]nonane-2,4-dione]",B (3 ≤ B < 0.6)
23,"CCN(CC)c1ccc2c(C)c(CCOC(=O)NCc3cnccn3)c(=O)oc2c1 [Compound 91, 2-(7-(diethylamino)-4-methyl-2-oxo-2H-chromen-3-yl)ethyl (pyrazin-2-ylmethyl)carbamate]",B (3 ≤ B < 0.6)

# — patent US11945806B2, “Stabilization of amyloidogenic immunoglobulin light chains” (The Scripps Research Institute, priority 2019, dated 2024)
